Assay results from ChEMBL document CHEMBL5233229, “Recent advances in the development of ubiquitin-specific-processing protease 7 (USP7) inhibitors” (Eur J Med Chem, 2020).
Where “and” joins values, the source holds several entries; their conditions need not be identical. Equal values may be shown once.

Assays:
[1] = molecular target: T1, Ubiquitin carboxyl-terminal hydrolase 47 (Homo sapiens, UniProt Q96K76); assay: Inhibition of human USP47 using Ub-EKL as substrate by SDS-PAGE assay
T1 sequence (Q96K76 whole entry): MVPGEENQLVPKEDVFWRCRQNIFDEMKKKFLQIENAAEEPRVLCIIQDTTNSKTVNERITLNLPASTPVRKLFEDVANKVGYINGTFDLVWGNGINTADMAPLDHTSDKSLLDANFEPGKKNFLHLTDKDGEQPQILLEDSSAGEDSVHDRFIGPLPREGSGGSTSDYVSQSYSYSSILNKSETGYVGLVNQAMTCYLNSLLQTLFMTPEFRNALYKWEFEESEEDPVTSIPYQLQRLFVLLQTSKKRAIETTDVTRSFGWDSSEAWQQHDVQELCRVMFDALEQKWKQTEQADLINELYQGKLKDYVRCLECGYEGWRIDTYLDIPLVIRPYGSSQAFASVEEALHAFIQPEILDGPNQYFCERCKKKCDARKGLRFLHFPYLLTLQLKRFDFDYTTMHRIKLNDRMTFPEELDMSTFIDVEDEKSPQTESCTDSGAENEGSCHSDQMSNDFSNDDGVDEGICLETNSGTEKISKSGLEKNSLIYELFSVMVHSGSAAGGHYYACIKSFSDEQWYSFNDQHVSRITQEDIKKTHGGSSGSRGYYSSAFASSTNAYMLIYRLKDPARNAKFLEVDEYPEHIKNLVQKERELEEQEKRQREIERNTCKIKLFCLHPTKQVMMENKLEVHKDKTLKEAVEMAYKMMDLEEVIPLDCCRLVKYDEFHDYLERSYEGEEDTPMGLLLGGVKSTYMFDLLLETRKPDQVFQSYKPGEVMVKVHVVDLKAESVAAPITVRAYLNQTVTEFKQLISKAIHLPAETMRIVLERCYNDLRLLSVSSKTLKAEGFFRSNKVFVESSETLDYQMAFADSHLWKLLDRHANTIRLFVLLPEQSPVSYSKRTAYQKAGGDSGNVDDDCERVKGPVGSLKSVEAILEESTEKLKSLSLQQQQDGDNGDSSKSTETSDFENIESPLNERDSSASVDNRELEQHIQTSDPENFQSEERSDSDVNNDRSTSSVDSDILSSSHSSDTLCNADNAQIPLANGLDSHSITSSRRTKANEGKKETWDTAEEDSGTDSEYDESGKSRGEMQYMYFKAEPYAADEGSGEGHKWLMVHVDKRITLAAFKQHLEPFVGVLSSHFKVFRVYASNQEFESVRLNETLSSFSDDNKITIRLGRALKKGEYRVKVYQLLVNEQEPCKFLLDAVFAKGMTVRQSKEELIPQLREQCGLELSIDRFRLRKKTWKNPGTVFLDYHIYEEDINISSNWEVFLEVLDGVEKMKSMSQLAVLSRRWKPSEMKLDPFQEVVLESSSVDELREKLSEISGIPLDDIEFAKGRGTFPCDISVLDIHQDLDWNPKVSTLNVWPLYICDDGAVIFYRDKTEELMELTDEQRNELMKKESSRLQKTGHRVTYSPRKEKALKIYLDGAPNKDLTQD

[2] = molecular target: T2, Ubiquitin carboxyl-terminal hydrolase 7 (Homo sapiens, UniProt Q93009); assay: Inhibition of human USP7 using Ub-EKL as substrate by SDS-PAGE assay
[3] = molecular target: T2, Ubiquitin carboxyl-terminal hydrolase 7; assay: Inhibition of human USP7 using human N-terminal GST-tagged UBA52 as substrate preincubated for 10 mins followed by substrate addition measured after 45 mins by coomassie brilliant blue staining-based SDS-PAGE analysis
[4] = molecular target: T2, Ubiquitin carboxyl-terminal hydrolase 7; assay: Inhibition of human USP7 using Ub-AMC as substrate
[5] = molecular target: T2, Ubiquitin carboxyl-terminal hydrolase 7; assay: Inhibition of human USP7 using Ub-EKL as substrate

T2 sequence (Q93009 whole entry): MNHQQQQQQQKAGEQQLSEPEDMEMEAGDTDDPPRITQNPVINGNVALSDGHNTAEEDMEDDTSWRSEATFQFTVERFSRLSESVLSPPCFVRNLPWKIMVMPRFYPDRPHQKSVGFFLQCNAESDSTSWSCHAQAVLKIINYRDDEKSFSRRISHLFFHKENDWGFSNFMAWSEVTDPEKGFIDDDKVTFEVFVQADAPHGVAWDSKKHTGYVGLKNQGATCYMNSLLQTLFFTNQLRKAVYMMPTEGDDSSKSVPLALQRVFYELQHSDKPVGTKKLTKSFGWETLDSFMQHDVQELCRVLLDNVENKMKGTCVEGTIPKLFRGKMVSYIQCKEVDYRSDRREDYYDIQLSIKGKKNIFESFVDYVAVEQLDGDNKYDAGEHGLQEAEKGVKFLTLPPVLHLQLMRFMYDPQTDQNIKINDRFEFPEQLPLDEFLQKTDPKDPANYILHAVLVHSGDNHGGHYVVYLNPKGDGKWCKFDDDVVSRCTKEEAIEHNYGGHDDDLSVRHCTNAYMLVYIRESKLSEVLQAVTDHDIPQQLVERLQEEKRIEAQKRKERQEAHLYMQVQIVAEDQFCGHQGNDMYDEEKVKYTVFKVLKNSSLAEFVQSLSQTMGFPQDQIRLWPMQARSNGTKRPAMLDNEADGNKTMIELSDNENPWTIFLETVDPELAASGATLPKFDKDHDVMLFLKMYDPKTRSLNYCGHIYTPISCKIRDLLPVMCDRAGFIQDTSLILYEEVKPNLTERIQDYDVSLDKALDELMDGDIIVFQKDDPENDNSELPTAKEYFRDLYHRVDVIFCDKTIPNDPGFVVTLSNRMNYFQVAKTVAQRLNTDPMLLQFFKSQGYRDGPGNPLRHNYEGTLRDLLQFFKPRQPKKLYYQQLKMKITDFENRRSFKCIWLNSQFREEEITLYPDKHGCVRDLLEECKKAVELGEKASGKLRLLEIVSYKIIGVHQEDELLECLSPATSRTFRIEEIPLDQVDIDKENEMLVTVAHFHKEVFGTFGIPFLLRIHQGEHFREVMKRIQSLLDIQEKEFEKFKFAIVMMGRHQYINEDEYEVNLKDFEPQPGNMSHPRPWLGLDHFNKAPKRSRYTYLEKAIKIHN

Row | EC50 [1] [nM] | EC50 [2] [nM] | IC50 [4] | other results | Compound
1 | 11800 | 6800 |  |  | CS(=O)(=O)c1ccc(NC(=O)c2cc([N+](=O)[O-])c(Sc3c(Cl)cncc3Cl)s2)cc1
2 |  |  |  | IC50 [3]: 33300 nM | C=C(C)[C@@H]1CC[C@]2(C(=O)O)CC[C@]3(C)[C@H](CC[C@@H]4[C@@]5(C)CC[C@H](O)C(C)(C)[C@@H]5CC[C@]43C)[C@H]2C1
3 | 940 | 420 |  |  | CCS(=O)(=O)c1cccc(NC(=O)c2cc([N+](=O)[O-])c(Sc3c(Cl)cncc3Cl)s2)c1
4 |  |  | > 100000 nM |  | N#CC1(Cn2cnc3cc(Cl)ccc3c2=O)CCN(C(=O)CCc2ccccc2)CC1
5 | 450 | 500 |  |  | CN(C)CCOc1ccc(NC(=O)c2cc([N+](=O)[O-])c(Sc3c(Cl)cncc3Cl)s2)cc1
6 |  |  |  | IC50 [3]: > 50000 nM | CC1(C)CC[C@]2(C(=O)O)CC[C@]3(C)C(=CC[C@@H]4[C@@]5(C)C[C@H](O)[C@H](O)[C@@](C)(CO)[C@@H]5CC[C@]43C)[C@@H]2C1
7 |  |  | 560 nM |  | CC(CC(=O)N1CCC(O)(Cn2cnc3cc(NC(=O)CCN4CCN(C)CC4)ccc3c2=O)CC1)c1ccccc1 (configuration not stated)
8 |  |  | 420 nM |  | C[C@H](CC(=O)N1CCC(O)(Cn2cnc3cc(Cl)ccc3c2=O)CC1)c1ccccc1
9 |  |  |  | IC50 [3]: > 50000 nM | C[C@H]1[C@H](C)CC[C@]2(C(=O)O)CC[C@]3(C)C(=CC[C@@H]4[C@@]5(C)C[C@@H](O)[C@H](O)[C@@](C)(CO)[C@@H]5[C@H](O)C[C@]43C)[C@H]12 [MADECASSIC ACID]
10 |  |  |  | IC50 [3]: 12500 nM | CC1(C)CC[C@]2(C(=O)O)CC[C@]3(C)C(=CC[C@@H]4[C@@]5(C)CC[C@H](O)C(C)(C)[C@@H]5CC[C@]43C)[C@@H]2C1 [OLEANOLIC_ACID]
11 |  |  | 40000 nM |  | C[C@@H](CC(=O)N1CCC(O)(Cn2cnc3cc(Cl)ccc3c2=O)CC1)c1ccccc1
12 |  |  |  | IC50 [3]: > 50000 nM | C=C(C)[C@@H]1CC[C@]2(C)CC[C@]3(C)[C@H](CC[C@@H]4[C@@]5(C)CC[C@H](O)C(C)(C)[C@@H]5CC[C@]43C)[C@H]2C1
13 | 360 | 170 |  |  | CC1=CS(=O)(=O)c2cc(NC(=O)c3cc([N+](=O)[O-])c(Sc4c(Cl)cncc4Cl)s3)ccc21
14 | 2200 | 2000 |  |  | CS(=N)(=O)c1cccc(NC(=O)c2cc([N+](=O)[O-])c(Sc3c(Cl)cncc3Cl)s2)c1 (configuration not stated)
15 |  |  | 270 nM |  | CC(C)C(CC(=O)N1CCC(O)(Cn2cnc3cc(NC(=O)CCN4CCN(C)CC4)ccc3c2=O)CC1)c1ccccc1 (configuration not stated)
16 |  |  | > 100000 nM |  | O=c1c2ccc(Cl)cc2ncn1CC1(O)CCN(CCCc2ccccc2)CC1
17 |  |  | > 100000 nM |  | O=C(Cc1ccccc1)N1CCC(O)(Cn2cnc3cc(Cl)ccc3c2=O)CC1
18 |  |  | > 100000 nM |  | O=C(CCc1ccccc1)N1CCC(Cn2cnc3cc(Cl)ccc3c2=O)CC1
19 | 1500 | 390 |  |  | O=C(Nc1cccc(S(=O)(=O)CC2CC2)c1)c1cc([N+](=O)[O-])c(Sc2c(Cl)cncc2Cl)s1
20 | 6400 | 4300 |  |  | O=C(c1cc([N+](=O)[O-])c(Sc2c(Cl)cncc2Cl)s1)N1CCS(=O)(=O)CC1
21 |  |  | > 100000 nM |  | CC(=O)N1CCC(O)(Cn2cnc3cc(Cl)ccc3c2=O)CC1
22 |  |  |  | IC50 [3]: > 50000 nM | CC1(C)[C@H](O)CC[C@]2(C)[C@H]3C(=O)C=C4[C@@H]5C[C@@](C)(C(=O)O)CC[C@]5(C)CC[C@]4(C)[C@@]3(C)CC[C@@H]12
23 | 4100 | 4800 |  |  | O=C(NC1CCS(=O)(=O)C2COCCC12)c1cc([N+](=O)[O-])c(Sc2c(Cl)cncc2Cl)s1 (configuration not stated)
24 | 9300 | 850 |  |  | CS(=O)(=O)c1ccccc1NC(=O)c1cc([N+](=O)[O-])c(Sc2c(Cl)cncc2Cl)s1
25 |  |  | 130 nM |  | C[C@H](CC(=O)N1CCC(O)(Cn2cnc3cc(NC(=O)CCN(C)C)ccc3c2=O)CC1)c1ccccc1
26 | 2000 | 790 |  |  | COCCNC1CS(=O)(=O)c2cc(NC(=O)c3cc([N+](=O)[O-])c(Sc4c(Cl)cncc4Cl)s3)ccc21 (configuration not stated)

Row | EC50 [1] [nM] | EC50 [2] [nM] | IC50 [4] | other results | Compound
27 | 1330 | 100 |  |  | O=C(Nc1ccc2c(c1)S(=O)(=O)C=C2)c1cc([N+](=O)[O-])c(Sc2c(Cl)cncc2Cl)s1
28 | 1600 | 810 |  |  | O=C(NC1CCS(=O)(=O)c2ccccc21)c1cc([N+](=O)[O-])c(Sc2c(Cl)cncc2Cl)s1 (configuration not stated)
29 |  |  | 12000 nM |  | O=C(CCc1ccccc1)N1CCC(O)(Cn2cnc3cc(Cl)ccc3c2=O)CC1
30 | 200 | 220 |  |  | CN(C)CCNC1CS(=O)(=O)c2cc(NC(=O)c3cc([N+](=O)[O-])c(Sc4c(Cl)cncc4Cl)s3)ccc21 (configuration not stated)
31 | 1400 | 510 |  |  | CS(=O)(=O)c1cccc(NC(=O)c2cc([N+](=O)[O-])c(Sc3c(Cl)cncc3Cl)s2)c1
32 |  |  | 240 nM |  | CC(CC(=O)N1CCC(O)(Cn2cnc3cc(NC(=O)CCn4ccnc4)ccc3c2=O)CC1)c1ccccc1 (configuration not stated)
33 | 2030 | 130 |  |  | O=C(Nc1ccc2c(c1)S(=O)(=O)CC2)c1cc([N+](=O)[O-])c(Sc2c(Cl)cncc2Cl)s1
34 |  |  | > 100000 nM |  | O=C(CCc1ccccc1)N1CCC(O)(Cn2cnc3cc(Cl)ccc3c2=O)C1 (configuration not stated)
35 | 1590 | 560 |  |  | O=C(Nc1cccc(S(=O)(=O)C2CC2)c1)c1cc([N+](=O)[O-])c(Sc2c(Cl)cncc2Cl)s1
36 | 360 | 75 |  |  | CC1CS(=O)(=O)c2cc(NC(=O)c3cc([N+](=O)[O-])c(Sc4c(Cl)cncc4Cl)s3)ccc21 (configuration not stated)
37 |  |  | 190 nM |  | C[C@H](CC(=O)N1CCC(O)(Cn2cnc3cc(NC(=O)CCN4CCN(C)CC4)ccc3c2=O)CC1)c1ccccc1
38 | 1100 | 470 |  |  | CC1CS(=N)(=O)c2cc(NC(=O)c3cc([N+](=O)[O-])c(Sc4c(Cl)cncc4Cl)s3)ccc21 (configuration not stated)
39 |  |  | 480 nM |  | C[C@H](CC(=O)N1CCC(O)(Cn2cnc3cc(NC(=O)CCN4CCOCC4)ccc3c2=O)CC1)c1ccccc1
40 | 3500 | 2100 |  |  | O=C(NC1CCS(=O)(=O)CC1)c1cc([N+](=O)[O-])c(Sc2c(Cl)cncc2Cl)s1
41 | 5100 | 590 |  |  | N#Cc1cc(C(=O)Nc2ccc3c(c2)S(=O)(=O)C=C3)sc1Sc1c(Cl)cncc1Cl
42 |  |  | 7180 nM and 11000 nM |  | C[C@@H](CC(=O)N1CCC(O)(Cn2cnc3cc(NC(=O)CCN4CCN(C)CC4)ccc3c2=O)CC1)c1ccccc1
43 |  |  |  | EC50 [5]: < 1000 nM | CN(C)CCCNC1CS(=O)(=O)c2cc(NC(=O)c3cnc(Sc4c(Cl)cncc4Cl)s3)ccc21 (configuration not stated)
44 |  |  |  | EC50 [5]: < 1000 nM | CN(C)CC(O)COc1ccc(NC(=O)c2nnc(Sc3c(Cl)cncc3Cl)s2)cc1 (configuration not stated)
45 |  |  |  | EC50 [5]: 2000 nM | COCCOCCN(C(=O)c1nnc(Sc2c(Cl)cncc2Cl)s1)c1ccc2c(c1)S(=O)(=O)CC2
46 |  |  |  | EC50 [5]: 1000 nM | Cc1nc2ccc(NC(=O)c3nnc(Sc4c(Cl)cncc4Cl)s3)cc2s1
47 |  |  | 350 nM |  | CC(CC(=O)N1CCC(O)(Cn2cnc3cc(NC(=O)CCN4CCCCC4)ccc3c2=O)CC1)c1ccccc1 (configuration not stated)
48 |  |  |  | EC50 [5]: 2000 nM | Nc1ncc(Cl)c(Sc2nnc(C(=O)Nc3ccc4c(c3)S(=O)(=O)C=C4)s2)c1Cl
49 | 1280 | 640 |  |  | CS(=O)(=O)Nc1cccc(NC(=O)c2cc([N+](=O)[O-])c(Sc3c(Cl)cncc3Cl)s2)c1
50 |  |  | 1300 nM |  | CC(CC(=O)N1CCC(O)(Cn2cnc3cc(Cl)ccc3c2=O)CC1)c1ccccc1 (configuration not stated)
51 |  |  |  | EC50 [5]: < 1000 nM | CN(C)CCOc1cccc(NC(=O)c2nnc(Sc3c(Cl)cncc3Cl)s2)c1
